Results on 29 compounds are retold here after ChEMBL document CHEMBL1201862, “PubChem BioAssay data set” (2004).

Active and inactive are the calls of the source.

The nature of assay [1]: viability of PTEN-deleted HCT116 cells – cell-based, HCT116 PTEN knockout, dose response (AID 1047).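 Note: HCT116 colon tumor cells with PTEN knocked out; cells exposed to compound for 60 hours before readout; potency for loss of cell viability measured by luminescence.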 Format: functional.
Assay [2] can be described thus: viability of HCT116 lacking mutant beta-catenin – cell-based, human colon tumor, dose response (AID 1045).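 Note: HCT116 colon tumor cells with beta catenin knocked out; cells exposed to compound for 60 hours.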 Format: functional.
In assay [3] the target is T1, Rac GTPase-activating protein 1 (Homo sapiens, UniProt Q9H0H5).
T1 sequence (Q9H0H5 whole entry): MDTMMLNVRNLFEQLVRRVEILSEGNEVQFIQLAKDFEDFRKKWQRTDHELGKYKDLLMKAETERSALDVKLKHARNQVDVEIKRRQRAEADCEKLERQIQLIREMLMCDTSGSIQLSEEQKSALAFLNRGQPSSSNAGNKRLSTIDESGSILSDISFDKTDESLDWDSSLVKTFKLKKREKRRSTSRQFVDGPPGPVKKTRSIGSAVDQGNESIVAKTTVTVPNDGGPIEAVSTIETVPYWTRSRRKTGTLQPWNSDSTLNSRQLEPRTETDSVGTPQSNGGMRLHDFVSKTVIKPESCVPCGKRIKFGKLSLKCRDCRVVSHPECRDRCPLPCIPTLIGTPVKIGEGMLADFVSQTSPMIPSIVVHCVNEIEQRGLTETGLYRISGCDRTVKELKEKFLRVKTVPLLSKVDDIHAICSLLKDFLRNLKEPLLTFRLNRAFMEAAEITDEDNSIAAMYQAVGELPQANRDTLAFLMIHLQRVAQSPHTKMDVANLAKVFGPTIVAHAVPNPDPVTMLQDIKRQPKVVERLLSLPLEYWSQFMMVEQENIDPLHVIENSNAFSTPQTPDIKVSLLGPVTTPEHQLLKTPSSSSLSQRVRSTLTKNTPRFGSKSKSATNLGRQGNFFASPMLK
The experiment in a line: blockers of MgcRacGAP-driven Rac1 GTP hydrolysis – biochemical, ADP Hunter fluorescence, primary and confirmatory, confirmation (AID 624330). Format: functional.

In assay [4] the target is T2, Corticotropin-releasing factor receptor 2/Corticotropin-releasing factor-binding protein (Homo sapiens, UniProt P24387+Q13324).
T2 sequence (Q13324 whole entry): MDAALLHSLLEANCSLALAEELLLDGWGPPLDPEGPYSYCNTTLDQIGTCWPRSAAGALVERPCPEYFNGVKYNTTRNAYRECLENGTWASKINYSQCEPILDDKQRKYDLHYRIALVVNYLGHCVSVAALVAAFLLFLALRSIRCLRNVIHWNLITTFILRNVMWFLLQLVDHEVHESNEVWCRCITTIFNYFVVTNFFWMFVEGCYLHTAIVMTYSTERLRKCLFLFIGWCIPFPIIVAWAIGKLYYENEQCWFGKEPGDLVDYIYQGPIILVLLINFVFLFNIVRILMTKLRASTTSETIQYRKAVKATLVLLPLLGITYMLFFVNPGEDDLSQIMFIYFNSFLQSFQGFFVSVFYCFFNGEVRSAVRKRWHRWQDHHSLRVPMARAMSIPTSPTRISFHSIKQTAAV
T2 sequence (P24387 whole entry): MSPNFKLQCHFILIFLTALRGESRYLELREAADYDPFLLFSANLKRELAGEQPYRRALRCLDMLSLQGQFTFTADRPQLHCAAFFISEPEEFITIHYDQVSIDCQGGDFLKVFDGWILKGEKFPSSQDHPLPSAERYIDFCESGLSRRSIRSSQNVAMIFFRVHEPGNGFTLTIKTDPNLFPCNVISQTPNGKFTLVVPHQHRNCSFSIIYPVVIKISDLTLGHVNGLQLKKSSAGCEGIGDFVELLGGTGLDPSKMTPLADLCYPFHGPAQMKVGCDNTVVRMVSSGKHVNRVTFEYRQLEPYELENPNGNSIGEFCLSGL
Nature of the assay: Dose Response confirmation of uHTS hits for small molecule antagonists of the CRF-binding protein and CRF-R2 receptor complex. To be noted: read-out: IC50_Mean. Format: functional.

Assay [5] addresses T2, Corticotropin-releasing factor receptor 2/Corticotropin-releasing factor-binding protein. The experiment in a line: activators of CRF receptor 2 with binding protein – uHTS hits, confirmation (AID 602473). Format: functional. The settings on record: read-out: EC50_Mean.
The nature of assay [6]: Trypanosoma cruzi growth suppression in host cells – NIH3T3 host cells, beta-gal luminescence, confirmation (AID 2044).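 Note: intracellular parasites grown in NIH/3T3 mouse fibroblasts as host cells; luminescent beta-galactosidase reporter signal from transgenic T. cruzi replicating inside host cells; inhibitors lower the luminescence signal.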 Format: functional, cell-based.
Assay [7] is described as follows: NIH3T3 cell viability loss – ATP luminescence, mouse fibroblasts, counter-screen, dose response (AID 2010).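 Note: cells exposed to compound for about 90 hours before reading.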 Format: functional, cell-based.
In the next assay the target is T3, Cytochrome P450 1A2 (Homo sapiens, UniProt P05177).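 Note: PubChem cytochrome P450 panel assay, CYP1A2 panel member.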
T3 sequence (P05177 whole entry): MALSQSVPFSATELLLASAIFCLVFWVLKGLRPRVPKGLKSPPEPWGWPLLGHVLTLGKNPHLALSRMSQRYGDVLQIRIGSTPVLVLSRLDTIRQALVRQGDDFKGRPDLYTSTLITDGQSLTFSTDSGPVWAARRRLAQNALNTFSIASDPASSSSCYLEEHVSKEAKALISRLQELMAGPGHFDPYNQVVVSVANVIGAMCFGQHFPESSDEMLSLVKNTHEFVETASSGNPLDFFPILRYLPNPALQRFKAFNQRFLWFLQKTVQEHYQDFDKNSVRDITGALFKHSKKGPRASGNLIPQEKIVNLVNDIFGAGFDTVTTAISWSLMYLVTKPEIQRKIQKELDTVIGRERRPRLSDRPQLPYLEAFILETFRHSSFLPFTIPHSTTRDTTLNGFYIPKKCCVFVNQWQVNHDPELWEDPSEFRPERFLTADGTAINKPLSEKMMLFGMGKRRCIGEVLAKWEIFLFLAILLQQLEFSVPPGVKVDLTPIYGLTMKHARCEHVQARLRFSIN

The next assay deals with Cytochrome P450 3A4 (Homo sapiens, UniProt P08684).
The next assay deals with Cytochrome P450 2C9 (Homo sapiens, UniProt P11712).
The subject of a further assay is H4. The experiment in a line: Luminescence Cell-Based Dose Response HTS to Identify Activators of 5'UTR Stem-Loop Driven Prion Protein mRNA Translation in H4 Neuroglioblastoma Cells. [Related pubchem assays: 1829 (Project Summary), 1814 (Primary HTS)]. Format: functional. The settings on record: Homo sapiens.
A further assay deals with Cytochrome P450 2D6 (Homo sapiens, UniProt P10635).
Assay [8] deals with T4, Heat shock factor protein 1 (Mus musculus, UniProt P38532).
T4 sequence (P38532 whole entry): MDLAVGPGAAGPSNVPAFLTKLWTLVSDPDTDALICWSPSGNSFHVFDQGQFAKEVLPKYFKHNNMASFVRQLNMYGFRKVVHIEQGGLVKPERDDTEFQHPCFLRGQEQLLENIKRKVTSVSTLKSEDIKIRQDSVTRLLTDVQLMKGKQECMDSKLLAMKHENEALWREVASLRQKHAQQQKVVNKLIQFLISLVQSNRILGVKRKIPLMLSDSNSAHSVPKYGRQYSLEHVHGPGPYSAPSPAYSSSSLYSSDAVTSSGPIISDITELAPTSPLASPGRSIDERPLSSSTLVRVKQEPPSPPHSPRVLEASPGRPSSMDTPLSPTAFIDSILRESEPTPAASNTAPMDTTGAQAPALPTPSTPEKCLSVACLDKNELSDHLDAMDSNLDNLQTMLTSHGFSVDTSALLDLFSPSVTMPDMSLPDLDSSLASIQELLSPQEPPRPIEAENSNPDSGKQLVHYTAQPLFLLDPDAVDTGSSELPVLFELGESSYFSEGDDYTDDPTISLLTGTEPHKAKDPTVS
Nature of the assay: decrease of HSF1-responsive luciferase luminescence – cell-based, NIH3T3, dose retest, confirmation (AID 2382).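 Note: NIH3T3 fibroblasts with HSF1-driven luciferase reporter stressed by proteasome inhibitor MG132; luminescence from HSF1-driven luciferase expression after 8 hours of MG132 stress.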 Format: functional.

Assay [9] concerns the target T5, RNA-binding protein pos-1 (Caenorhabditis elegans, UniProt G5EF15).
T5 sequence (G5EF15 whole entry): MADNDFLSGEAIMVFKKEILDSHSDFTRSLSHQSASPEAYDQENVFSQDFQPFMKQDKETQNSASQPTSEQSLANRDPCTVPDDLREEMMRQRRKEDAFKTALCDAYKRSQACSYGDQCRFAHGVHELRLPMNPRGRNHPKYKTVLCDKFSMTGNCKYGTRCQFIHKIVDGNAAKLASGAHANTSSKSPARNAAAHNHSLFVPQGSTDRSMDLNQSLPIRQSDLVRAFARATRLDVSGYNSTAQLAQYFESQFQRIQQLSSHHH
The experiment in a line: disruptors of C. elegans POS-1 RNA interaction – biochemical, fluorescence polarization, dose response (AID 1964).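 Note: purified POS-1 fused to maltose binding protein made in E. coli; potency of compounds blocking POS-1 binding to fluorescent RNA.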 In general terms: Polarisation of emitted light reports the rotation of a fluorescent probe.

Cytochrome P450 3A4, sequence (P08684 whole entry): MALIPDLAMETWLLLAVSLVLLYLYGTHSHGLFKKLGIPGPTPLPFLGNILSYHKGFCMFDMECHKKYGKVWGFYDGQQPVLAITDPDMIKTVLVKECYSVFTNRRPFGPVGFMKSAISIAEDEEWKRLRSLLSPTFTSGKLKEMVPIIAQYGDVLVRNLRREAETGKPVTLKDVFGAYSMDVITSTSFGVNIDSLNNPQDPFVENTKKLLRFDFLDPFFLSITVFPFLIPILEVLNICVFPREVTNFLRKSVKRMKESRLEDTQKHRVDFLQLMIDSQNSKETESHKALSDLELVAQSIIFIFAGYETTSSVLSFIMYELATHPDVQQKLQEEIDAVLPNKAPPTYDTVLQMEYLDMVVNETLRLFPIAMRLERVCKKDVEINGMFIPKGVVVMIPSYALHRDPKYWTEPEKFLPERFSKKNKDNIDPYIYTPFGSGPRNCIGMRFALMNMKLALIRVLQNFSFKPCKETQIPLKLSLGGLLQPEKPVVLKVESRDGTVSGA
Cytochrome P450 2C9, sequence (P11712 whole entry): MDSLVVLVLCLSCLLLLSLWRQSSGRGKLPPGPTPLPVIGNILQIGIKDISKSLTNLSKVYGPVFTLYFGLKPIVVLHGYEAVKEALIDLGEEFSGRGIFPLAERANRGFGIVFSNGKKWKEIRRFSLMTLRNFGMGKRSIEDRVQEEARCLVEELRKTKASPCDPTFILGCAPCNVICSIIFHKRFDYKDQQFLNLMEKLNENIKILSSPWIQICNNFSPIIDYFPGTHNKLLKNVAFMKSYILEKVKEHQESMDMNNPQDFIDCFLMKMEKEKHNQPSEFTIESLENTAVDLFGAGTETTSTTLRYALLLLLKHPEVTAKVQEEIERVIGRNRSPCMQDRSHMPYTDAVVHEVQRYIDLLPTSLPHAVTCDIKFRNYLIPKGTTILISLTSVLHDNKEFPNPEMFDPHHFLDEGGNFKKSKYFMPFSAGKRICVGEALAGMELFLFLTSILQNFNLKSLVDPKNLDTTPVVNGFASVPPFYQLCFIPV
Cytochrome P450 2D6, sequence (P10635 whole entry): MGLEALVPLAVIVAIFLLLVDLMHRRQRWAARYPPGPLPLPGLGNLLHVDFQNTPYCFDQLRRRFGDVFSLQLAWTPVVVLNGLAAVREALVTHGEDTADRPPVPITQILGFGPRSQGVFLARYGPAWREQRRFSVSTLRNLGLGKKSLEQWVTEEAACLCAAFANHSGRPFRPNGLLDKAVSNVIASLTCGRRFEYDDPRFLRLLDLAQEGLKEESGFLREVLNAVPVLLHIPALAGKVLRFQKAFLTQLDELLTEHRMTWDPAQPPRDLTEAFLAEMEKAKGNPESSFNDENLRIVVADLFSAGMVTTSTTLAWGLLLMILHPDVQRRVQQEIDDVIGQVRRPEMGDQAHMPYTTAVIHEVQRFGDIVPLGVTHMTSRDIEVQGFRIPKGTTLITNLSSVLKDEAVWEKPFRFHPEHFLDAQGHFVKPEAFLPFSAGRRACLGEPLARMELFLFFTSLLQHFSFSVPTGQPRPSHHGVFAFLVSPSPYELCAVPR

Turning to `CCOC(=O)c1cccc(-n2c(-c3ccc(OC)cc3)nc3nc4ccccc4nc32)c1`, the EC50 in assay [1] is 15.3 µM (active); in [2], 13.5 µM (active).

As for `Nc1sc(-c2ccccc2)c(Cc2ccccc2)c1C(=O)O`, the IC50 in assay [3] is 67.6 µM (active).

Take `c1ccc(C(c2nnnn2Cc2cccs2)N2CCN(C3CCCC3)CC2)cc1` (configuration not stated): the IC50 in [4] was > 47.1 µM (inactive). Besides, the EC50 in assay [5] is > 53 µM (inactive).

With `CC(C)Cn1c(N)c(C(=O)CSc2ncnc3sc4c(c23)CCCC4)c(=O)n(C)c1=O`, the values for the EC50 in assay [1] and in assay [2] were 12.1 µM (active) and 12.2 µM (active), respectively.

For the compound `COc1ccc(N2C3=C(CC4=C2CC(C)(C)CC4=O)C(=O)CC(C)(C)C3)cc1`, the EC50 in assay [6] was 0.484 µM (active); in assay [1] it was 9.52 µM (active); in [7], 9.07 µM (active); in assay [2], 8.4 µM (active).

With `O=C(CSCc1ccccc1Br)NNC(=S)NCc1ccco1`, the IC50 in [4] is > 47.1 µM (inactive). Also, the EC50 in assay [5] is > 53 µM (inactive).

The AC50 is the concentration giving half of the maximal activity seen. `COc1ccc(-c2csc(-n3ncc(-c4cccs4)c3N)n2)cc1`: the AC50 on Cytochrome P450 1A2 is 0.355 µM (inconclusive); on Cytochrome P450 3A4 it was 8.91 µM (inconclusive); at Cytochrome P450 2C9, 0.0501 µM (inconclusive).

Take `Nc1nc(NC(=O)c2cccs2)nn1-c1ccccc1`: the EC50 in the assay with H4 is on record as > 120 µM (not active).

With `Cc1ccc(-c2cnc(NC(=O)CCC(=O)N3CCCCC3)n2C)cc1`, the half-maximal activity concentration (AC50) is 14.1 µM (inconclusive) on Cytochrome P450 2D6, 25.1 µM (inconclusive) on Cytochrome P450 1A2 and 39.8 µM (inconclusive) at Cytochrome P450 3A4.

`Oc1ccccc1CNc1ccc2c(c1)OCCO2`: the IC50 in assay [3] is 94.9 µM (active).

For `COc1ccc(-c2nc3cnc(OC)nc3n(CCc3ccccc3)c2=O)cc1`, the AC50 on Cytochrome P450 1A2 is 6.31 µM (inconclusive); on Cytochrome P450 3A4 it was 10 µM (inconclusive); at Cytochrome P450 2C9, 6.31 µM (inconclusive).

As to `CN(c1ccccc1)S(=O)(=O)c1ccc2c(c1)oc(=O)n2C`, the IC50 in assay [4] is > 47.1 µM (inactive). Further, in assay [5], the EC50 is > 53 µM (inactive).

For `CC(C(=O)NC1CCCCC1)N1CCN(C)CC1` (configuration not stated), the IC50 in [3] is 93.7 µM (active).

`CS(=O)(=O)N(CC(O)Cn1c2ccccc2c2ccccc21)c1cccc2ccccc12` (configuration not stated): the EC50 in assay [1] is 16 µM (active); in [2], 18.1 µM (active).

As to `Brc1ccc([C@H]2CN3CCSC3=N2)cc1`, the values for the AC50 on Cytochrome P450 1A2 and at Cytochrome P450 3A4 were 15.8 µM (inconclusive) and 25.1 µM (inconclusive), respectively.

On to `CN(C)S(=O)(=O)c1ccc(C(=O)OCC(=O)Nc2ccc(OC(F)F)cc2)cc1`, for which the IC50 in assay [4] was > 47.1 µM (inactive). Moreover, the EC50 in assay [5] is > 53 µM (inactive).

As to `CC(=O)N1c2ccc(S(=O)(=O)N(C)CC(=O)NC3CCCC3)cc2CC1C` (configuration not stated), the IC50 in assay [4] was > 47.1 µM (inactive). For the same compound, the EC50 in assay [5] was > 53 µM (inactive).

Take `Cc1[nH]c2ccc(-c3nnc(SCC(=O)c4ccc(F)cc4)o3)cc2c1C`: the EC50 in [8] was > 195 µM (not active); in [1], 33.4 µM (active); in [2], 31.2 µM (active).

`CCCn1c(=O)c2ccccc2n2c(SCCNCCO)nnc12`: the IC50 in assay [3] was 52.2 µM (active).

`COc1ccccc1NS(=O)(=O)c1cc(N)ccc1N1CCCC1`: in assay [3], the IC50 is 47.8 µM (active).

`COc1cc(/C=C/C(=O)OCC(=O)NNC(=O)c2cc(Cl)ccc2OC)ccc1O`: the IC50 in assay [3] is 60.5 µM (active).

Consider `O=C(O)c1cccc(NC(=NS(=O)(=O)c2ccccc2)c2ccccc2)c1`, for which the IC50 in [4] was > 47.1 µM (inactive). For the same compound, the EC50 in assay [5] is > 53 µM (inactive).

Regarding `CCOC(=O)C1=C(C)N=c2s/c(=C/c3ccc(OCC(=O)O)cc3)c(=O)n2C1c1ccc(OC)cc1OC` (configuration not stated), in assay [9], the EC50 was 85.1 µM (active).

With `NC(=O)CSc1nnnn1-c1ccc2c(c1)OCCO2`, in assay [4], the IC50 was > 47.1 µM (inactive). In addition, the EC50 in assay [5] is > 53 µM (inactive).

As to `CN(C)c1ccc(/C=N\Nc2ccccn2)cc1`, the IC50 in [3] was 31.6 µM (active).

In the case of `C[C@H](CO)N1C[C@H](C)[C@@H](CN(C)C(=O)c2ccc3ccn(C)c3c2)OCc2cn(nn2)CCCC1=O`, in assay [4], the IC50 was > 47.1 µM (inactive). For the same compound, the EC50 in [5] was > 53 µM (inactive).

As for `COc1ccc2[nH]c3c(=O)n(Cc4ccc(C(=O)N5CCC(C(N)=O)CC5)cc4)c(=S)[nH]c3c2c1`, the IC50 in assay [3] is 61.3 µM (active).

On to `Oc1ccc(/C=N/Nc2nc(N3CCCC3)nc(N3CCCC3)n2)cc1O`, for which the IC50 in assay [3] is 57.3 µM (active).

For `Cc1ccc(-c2nnc(S)n2/N=C/c2ccc(C(=O)O)cc2)cc1`, the IC50 in assay [3] is 74.4 µM (active).
